Source: patent US6815464B2, “Carbamate compounds for use in the treatment of pain” (Ortho-McNeil Pharmaceutical, Inc., priority 2001, dated 2004)
Marks after values point to notes of the source that are not given here.

System: sciatic nerve loose ligation in rats
Assay: Bennett model (Chronic Constrictive Injury), thermal stimulation, paw-withdrawal latency
Assay type: in vivo
Conditions: rat; for Antihyperalgesic Effectiveness (% Effective): vs vehicle control; for anti-hyperalgesic effect against a thermal stimulation challenge: p.o., summary statement in words
From the text: Bennett Model (Chronic Constrictive Injury)
The Bennett model consists of sciatic nerve loose ligation in rats (Bennett G J and Xie Y K, A peripheral mononeuropathy in rat that produces disorders of pain sensation like those seen in man, Pain, 1988, 33, 87-107). Although the pharmacological profile of the spontaneous pain, protective posture and allodynia (minor) is similar to that of clinical neuropathic pain, the loose chronic ligature of sciatic nerve in the Bennett model causes greater thermal hyperalgesia than mechanical allodynia due to its inflammatory mechanism. The loose ligation causes the constriction/swelling followed by inflammation at the ligation site, a condition most commonly associated with various types of pain. The behavioral response to the ligature is one of hyperalgesia. Thus, anti-hyperalgesia reduces chronic signs of pain hypersensitivity. Therefore, the Bennett model is used to evaluate antinociceptive pain (Cui J G, Possible role of inflammatory mediators in tactile hypersensitivity in rat models of mononeuropathy, Pain, 2000, 88 (3), 239-248; Lovell J A, Changes in Spinal Serotonin Turnover Mediate Age-Related Differences in the Behavioral Manifestations of Peripheral Nerve Injury, Pharmacol. Biochem. Behav., 2000, 66 (4), 873-878; Yasuda T, The novel analgesic compound OT-7100[5-n-butyl-7-(3,4,5-trimethoxybenzoylamino)pyrazolo[1,5a]pyrimidine] attenuates mechanical nociceptive responses in animal models of acute and peripheral neuropathic hyperalgesia, J. Pharmacol., 1999, 79 (1), 65-73; Toda K, Antinociceptive effects of neurotropin in a rat model of painful peripheral mononeuropathy, Life Sci., 1998, 62 (10), 913-921; Munglani R, Neuropeptide changes persist in spinal cord despite resolving hyperalgesia in a rat model of mononeuropathy, Brain Res., 1996, 743, 1 (2), 102-108).
[…] The anti-hyperalgesia effect was assessed at 30, 60, and 90 minutes after the oral administration.
Rats (180-220 g body weight) were anesthetized (sodium pentobarbital, 40 mg/kg, ip) and an incision was made at the mid-thigh level to expose the common left sciatic nerve. Four ligatures spaced 1 mm apart were loosely tied around the sciatic nerve. The wound was then sutured. The rats received an i.m. injection of 50,000 IU Penicillin and were allowed to recover after this procedure. At least one week after the surgery, when the chronic state was fully established, rats were consecutively submitted to thermal stimulation of both the non-lesioned and the lesioned hind-paws. The apparatus (UgoBasil, Reference: 7371) consists of 6 individual Plexiglas boxes (17×13×13 cm) placed upon an elevated glass floor. The rat was placed in the box and allowed to habituate for 10 minutes. A mobile infrared radiant source (setting 20) was then focused under the non-lesioned and lesioned hind-paws and the paw-withdrawal latencies in seconds were automatically recorded. The test was performed in a blinded fashion. The increased latency in treated animals as compared to control animals (those receiving only vehicle) was expressed as % of effectiveness of the drug. Data were analyzed by comparing the treated lesion group with controls using unpaired Student's t-test.

[1] = 10 mg/kg p.o., 60 min after administration
[2] = 10 mg/kg p.o., 90 min after administration
[3] = 30 mg/kg p.o., 30 min after administration
[4] = 30 mg/kg p.o., 60 min after administration
[5] = 30 mg/kg p.o., 90 min after administration
[6] = 300 mg/kg p.o., 30 min after administration
[7] = 300 mg/kg p.o., 60 min after administration
[8] = 300 mg/kg p.o., 90 min after administration

SMILES | Antihyperalgesic Effectiveness (% Effective) [1] [%] | Antihyperalgesic Effectiveness (% Effective) [2] [%] | Antihyperalgesic Effectiveness (% Effective) [3] [%] | Antihyperalgesic Effectiveness (% Effective) [4] | Antihyperalgesic Effectiveness (% Effective) [5] | Antihyperalgesic Effectiveness (% Effective) [6] [%] | Antihyperalgesic Effectiveness (% Effective) [7] | Antihyperalgesic Effectiveness (% Effective) [8] [%] | anti-hyperalgesic effect against a thermal stimulation challenge
NC(=O)OC[C@H](OC(N)=O)c1ccccc1Cl [Formula (IIb)] | 121 | 50 | 61 | 318** % | 182** % | 48 | 198** % | 69 | anti-hyperalgesic effect
NC(=O)OC[C@@H](O)c1ccccc1Cl [Formula (Ib)] | 79 | 53 | 59 | 109% | 107% | 43 | 314** % | 151 | anti-hyperalgesic effect
